Reference: ChEMBL document CHEMBL4312043, “Discovery of Novel Neuraminidase Inhibitors by Structure-Based Virtual Screening, Structural Optimization, and Bioassay” (ACS Med Chem Lett, 2019)

Target: not listed separately
Assay: Inhibition of clostridium neuraminidase using fluorescent substrate preincubated for 2 mins followed by substrate addition and measured after 30 mins by fluorescence based microplate reader analysis

For `O=C(N/N=C/c1cc(Cl)ccc1[N+](=O)[O-])c1cc(O)cc(O)c1`, which IC50 is on record?
The IC50 was 3.71 µM.

For `O=C(N/N=C/c1ccc(F)c([N+](=O)[O-])c1)c1cc(O)c(O)c(O)c1`, which IC50 is on record?
The IC50 was 22.7 µM.

With `O=C(N/N=C/c1cc(Cl)ccc1[N+](=O)[O-])c1cc(O)c(O)c(O)c1` as the compound, how does the IC50 read?
The IC50 was 10.6 µM.

For `O=C(N/N=C/c1cc([N+](=O)[O-])ccc1F)c1cc(O)c(O)c(O)c1`, which IC50 is on record?
The IC50 was 36.6 µM.

For `COc1cc(/C=N/NC(=O)c2cc(O)cc(O)c2)ccc1O`, which IC50 is on record?
The IC50 was 11.6 µM.

Which IC50 does the source give for `COc1cc(/C=N/NC(=O)c2cc(O)cc(O)c2)cc(OC)c1O` here?
Its IC50 is 14.8 µM.

With `COc1cc(/C=N\NC(=O)c2ccc(Cn3cc(Br)c([N+](=O)[O-])n3)o2)cc(OC)c1O` as the compound, how does the IC50 read?
The IC50 was 12.9 µM.

For `O=C(N/N=C/c1ccc(O)c([N+](=O)[O-])c1)c1cc(O)c(O)c(O)c1`, which IC50 is on record?
The IC50 was 9.67 µM.

With `CCC(CC)O[C@@H]1C=C(C(=O)O)C[C@H](N)[C@H]1NC(C)=O` [OSELTAMIVIR CARBOXYLATE] as the compound, how does the IC50 read?
Its IC50 is 3.04 µM.

For `O=C(N/N=C/c1ccc(F)c([N+](=O)[O-])c1)c1cc(O)cc(O)c1`, which IC50 is on record?
The IC50 was 5.47 µM.

For `CCOC(=O)c1ccc(N/N=C/c2cc(Br)cc([N+](=O)[O-])c2O)cc1`, which IC50 is on record?
Its IC50 is 16 µM.

With `O=C(N/N=C/c1cc([N+](=O)[O-])ccc1O)c1cc(O)cc(O)c1` as the compound, how does the IC50 read?
Its IC50 is 1.92 µM.

With `COc1ccc(Br)cc1C(=O)N/N=C/c1ccc(Oc2ccc([N+](=O)[O-])cc2C#N)cc1` as the compound, how does the IC50 read?
Its IC50 is 7.71 µM.

Which IC50 does the source give for `O=C(N/N=C/c1ccc(OS(=O)(=O)c2ccccc2)cc1)c1cccc([N+](=O)[O-])c1` here?
Its IC50 is 8.44 µM.

For `O=C(N/N=C/c1ccc(O)c([N+](=O)[O-])c1)c1cc(O)cc(O)c1`, which IC50 is on record?
Its IC50 is 0.21 µM.

With `O=C(N/N=C/c1cc([N+](=O)[O-])ccc1F)c1cc(O)cc(O)c1` as the compound, how does the IC50 read?
The IC50 was 3.97 µM.

For `CC(=O)Nc1ccc(/C=N/NC(=O)c2cc(O)cc(O)c2)cc1`, which IC50 is on record?
Its IC50 is 13.8 µM.

Target: Neuraminidase (Influenza A virus (A/Puerto Rico/8/1934(H1N1)), UniProt P03468)
Assay: Inhibition of Influenza A virus H1N1 neuraminidase using MU-NANA as substrate preincubated for 10 mins followed by substrate addition and measured after 15 mins by fluorescence based assay

Sequence of Neuraminidase (Influenza A virus (A/Puerto Rico/8/1934(H1N1)), UniProt P03468) (P03468 whole entry): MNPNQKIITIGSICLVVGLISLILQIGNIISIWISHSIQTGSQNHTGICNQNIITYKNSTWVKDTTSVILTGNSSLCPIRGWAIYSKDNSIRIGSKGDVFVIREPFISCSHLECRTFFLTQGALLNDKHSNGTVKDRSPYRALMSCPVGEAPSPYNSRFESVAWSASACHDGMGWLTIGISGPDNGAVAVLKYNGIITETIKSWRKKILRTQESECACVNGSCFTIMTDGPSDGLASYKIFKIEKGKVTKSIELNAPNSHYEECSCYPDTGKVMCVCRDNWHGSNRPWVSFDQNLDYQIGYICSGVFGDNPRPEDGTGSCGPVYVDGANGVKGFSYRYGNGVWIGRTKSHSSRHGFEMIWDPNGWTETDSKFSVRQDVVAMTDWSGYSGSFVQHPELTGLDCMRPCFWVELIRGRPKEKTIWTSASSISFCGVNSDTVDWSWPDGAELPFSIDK

With `CC1=NN(c2cccc(C(=O)O)c2)C(=O)/C1=C\c1ccc(-c2cc(Cl)ccc2C(=O)O)o1` as the compound, how does the IC50 read?
The IC50 was 37 µM.
